Laboratory results reported in patent US12685777B2, “Compositions, systems, and methods for modulating a target gene” (The Board of Trustees of the Leland Stanford Junior …, priority 2022, dated 2026).
Entries after “also recorded” stand apart in the source; their conditions may differ. Like-named read-outs stand apart in the source and are kept apart here.

Assays:
CDK9 and BCL6 = target: T1, CDK9 and BCL6 (Homo sapiens, UniProt P41182+P50750); experiment: Competition of TCIP-induced cell death with BCL6 inhibitor; format: cell-based; settings: cell death recorded 72 hours after adding
T1 construct: endogenous in cells

SUDHL5 = experiment: Killing of lymphoma cell lines by CDK9-BCL6 TCIPs, death recorded 72 hours later; format: cell-based, human
Experimental: FIG. 15 CDK9-BCL6 TCIPs Effectively Kill Human Lymphomas. The molecules shown in FIG. 14 were used at the indicated concentrations to treat different lymphoma cell lines, such as SUDHL5 shown here. Death was recorded 72 hours later.

DLBCL cell lines = experiment: Chemical rescue: competitive titration of JQ1 or Bl3812 against the TCIP; format: cell-based; settings: titrated against constant JWZ-7-7 / TCIP1
NCI-H2196 = experiment: Dose response on viability of small cell lung cancer line, resazurin assay; format: cell-based; settings: NCI-H2196, 72 h treatment
Experimental: (§1) IC50 of JWZ-7-7, BI-3812, JQ1, and combinations were calculated based on a dose response curve on three small cell lung cancer lines (FIG. 5). The dose response curve on viability was performed in technical replicates and biological triplicate after treating cells for 72 hours across a broad range of concentrations via serial dilutions. Viable cells were measured after treatment via a resazurin assay. The signal for viable assays was normalized to the DMSO treated negative control. A four-parameter non-linear fit was performed to fit a curve to calculate the IC50 for each of the cell lines. The table below describes the calculated IC50 across JWZ-7-7, JQ1, BI-3812 and combination of JQ1 and BI-3812 after 72 h treatment in technical replicates and biological triplicates.

DMS-79 = experiment: as above; format: cell-based; settings: DMS-79, 72 h treatment
Experimental: as §1

NCI-H1105 = experiment: as above; format: cell-based; settings: NCI-H1105, 72 h treatment
Experimental: as §1

[1] = system: MYC, FOXO3, p21, BCL6, BRD4 protein levels in KARPAS422 and SUDHL5; settings: known for BET/BRD4 inhibitors; cited from earlier work
[2] = system: human prostatic cancer cell lines; experiment: Viable cell counts of androgen-dependent prostate cancer cell lines after 72 hours; format: cell-based; settings: 72 hours of exposure, read-out: IC50 of killing of prostate cancer cell lines
Experimental: The AR-BCL6 TCIPs synthesized in I above were tested for their ability to kill prostate cancer cell lines as an indication of their ability to treat human prostatic cancer. AR-TCIPs rapidly and robustly kill human prostatic cancer cell lines. Four different cell lines were used that are androgen-dependent. The drugs were added at the indicated concentrations and viable cell counts determined after 72 hours of exposure. […] The EC50 is shown in each case.

AR and BCL6 = target: T2, AR and BCL6 (Homo sapiens, UniProt P10275+P41182); experiment: AR-BCL6 nanoBRET assay in HEK293 cells; format: cell-based; settings: labeled AR and BCL6
T2 construct: HaloTag; NanoLuc; expressed in transfected cells; host or cells: HEK293
Description: To ascertain activity of TCIP RCS-02-063 as schematically illustrated in FIG. 1, w a BRET assay was developed to detect in vivo target engagement and ternary complex formation. FIG. 25 (Panels A-B) provides an illustration of the assay as wells the results obtained therefrom. […] A BRET signal at 618 nm was then detected after excitation at 460 nm of HEK293 cells infected with the labeled fusion proteins.

T2 sequence (P10275 whole entry, other chains not shown): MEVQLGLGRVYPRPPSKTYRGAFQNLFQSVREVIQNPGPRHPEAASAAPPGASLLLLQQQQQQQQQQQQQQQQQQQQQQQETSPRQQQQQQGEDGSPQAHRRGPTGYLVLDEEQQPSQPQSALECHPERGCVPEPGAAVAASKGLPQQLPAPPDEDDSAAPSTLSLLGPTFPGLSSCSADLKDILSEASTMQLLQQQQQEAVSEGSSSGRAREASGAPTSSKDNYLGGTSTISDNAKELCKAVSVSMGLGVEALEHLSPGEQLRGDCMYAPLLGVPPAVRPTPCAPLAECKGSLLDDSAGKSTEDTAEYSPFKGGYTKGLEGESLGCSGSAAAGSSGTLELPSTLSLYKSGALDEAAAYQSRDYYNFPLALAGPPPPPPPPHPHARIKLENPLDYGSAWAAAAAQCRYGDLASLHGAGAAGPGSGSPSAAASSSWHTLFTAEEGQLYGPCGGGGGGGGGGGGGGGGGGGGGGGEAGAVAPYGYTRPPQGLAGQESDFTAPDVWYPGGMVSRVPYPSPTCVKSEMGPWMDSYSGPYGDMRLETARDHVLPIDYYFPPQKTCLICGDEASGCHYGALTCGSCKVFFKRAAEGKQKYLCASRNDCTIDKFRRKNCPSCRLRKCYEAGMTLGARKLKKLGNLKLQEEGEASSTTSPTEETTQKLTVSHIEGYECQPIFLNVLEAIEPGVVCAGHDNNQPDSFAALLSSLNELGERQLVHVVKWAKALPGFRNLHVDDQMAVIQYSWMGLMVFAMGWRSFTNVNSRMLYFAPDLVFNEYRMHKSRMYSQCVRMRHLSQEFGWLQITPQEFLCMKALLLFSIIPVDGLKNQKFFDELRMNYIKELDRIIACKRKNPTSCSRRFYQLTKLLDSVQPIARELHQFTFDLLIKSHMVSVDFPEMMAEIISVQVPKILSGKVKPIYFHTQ

In the case of `CNC(=O)COc1cc2cc(Nc3nc(N4CCC(C(=O)NCCCCCCC(=O)N5CCC(C(=O)Nc6ncc(SCc7ncc(C(C)(C)C)o7)s6)CC5)CC4)ncc3Cl)cc(OC)c2n(C)c1=O` [BAK04-21], the “Ternary complex in cells, competition with Bl3812” value (CDK9 and BCL6) is reported as “forms a ternary complex in cells that can be competed with the BCL6 inhibitor”.

In the case of `CNC(=O)COc1cc2cc(Nc3nc(N4CCC(C(=O)NCCCCCCC(=O)N5CCC(C(=O)Nc6ncc(SCc7ncc(C(C)(C)C)o7)s6)CC5)CC4)ncc3Cl)cc(OC)c2n(C)c1=O` [BAK_04_21], the “Killing of lymphoma cells relative to component and competitor molecules” value (SUDHL5) is reported as “more effective at killing lymphoma cells than component molecules and competitor molecules”.

In the case of `Cc1sc2c(c1C)C(c1ccc(Cl)cc1)=N[C@@H](CC(=O)OC(C)(C)C)c1nnc(C)n1-2` [JQ1], the “Rescue of TCIP-induced cell death” value (DLBCL cell lines) is reported as “rescue cell death; also recorded: prevented death by TCIP1”, the IC50 (NCI-H2196) is reported as 14.4 µM and the IC50 (DMS-79) is reported as 10.1 µM. For the same compound, the IC50 (NCI-H1105) was “Unstable” and the “Drug level that reduces expression of MYC” value [1] was 500 nM.

In the case of `CNC(=O)COc1cc2cc(Nc3nc(N4CCC(C(=O)NCCCNC(=O)CO/N=C5\CC[C@H]6[C@@H]7CC[C@H]8CC(=O)CC[C@]8(C)[C@H]7CC[C@]56C)CC4)ncc3Cl)cc(OC)c2n(C)c1=O` [RCS-02-063], the IC50 [2] is reported as ~1 µM, the IC50 ([2]; Homo sapiens, 72 h) is reported as ~1.5 µM and the “BRET signal (target engagement)” value (AR and BCL6) is reported as “robust BRET signal”.
